Measurements reported in paper PMC6364417, “Kinase inhibitor library screening identifies synergistic drug combinations effective in sensitive and resistant melanoma cells” (Journal of Experimental & Clinical Cancer Research : CR, 2019).

Assays:
Experiment in all cases: Kinase inhibitor library screening, PrestoBlue cell viability, 1 or 10 μM, 72 h
[1] = system: A375-XP cells (Vemurafenib-resistant); conditions: A375 XP
IGR37 cells (parental) = conditions: IGR37 Parental
501Mel cells (parental) = conditions: 501Mel Parental
How it was run: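 Kinase inhibitors added at two fixed concentrations; 72 h exposure; PrestoBlue readout; % viability vs untreated; n ≥ 2 per line.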

[2] = system: 501Mel-GP cells (Dabrafenib-resistant); conditions: 501Mel GP
[3] = system: 501Mel-XP cells (Vemurafenib-resistant); conditions: 501Mel XP
[4] = system: IGR37-GP cells (Dabrafenib-resistant); conditions: IGR37 GP
[5] = system: IGR37-XP cells (Vemurafenib-resistant); conditions: IGR37 XP
[6] = system: A375-GP cells (Dabrafenib-resistant); conditions: A375 GP
A375 cells (parental) = conditions: A375 Parental

O=C1NC(=O)C(c2ccccc2[N+](=O)[O-])=C1Nc1ccc(O)c(Cl)c1 [SB 415286]
cell viability, A375 XP, 1μΜ ([1]; 1μΜ, 72 h, in %): 100.0 | cell viability, A375 XP, 10μΜ ([1]; 10μΜ, 72 h, in %): 92.8 | cell viability, IGR37 Parental, 1μΜ (IGR37 cells (parental); 1μΜ, 72 h, in %): 102.6 | cell viability, 501Mel Parental, 1μΜ (501Mel cells (parental); 1μΜ, 72 h, in %): 94.3 | cell viability, 501Mel Parental, 10μΜ (501Mel cells (parental); 10μΜ, 72 h, in %): 76.0 | cell viability, 501Mel GP, 1μΜ ([2]; 1μΜ, 72 h, in %): 100.2 | cell viability, 501Mel GP, 10μΜ ([2]; 10μΜ, 72 h, in %): 76.0 | cell viability, 501Mel XP, 1μΜ ([3]; 1μΜ, 72 h, in %): 92.5 | cell viability, 501Mel XP, 10μΜ ([3]; 10μΜ, 72 h, in %): 76.3 | cell viability, IGR37 GP, 10μΜ ([4]; 10μΜ, 72 h): 93.7% | cell viability, IGR37 GP, 1μΜ ([4]; 1μΜ, 72 h, in %): 94.9 | cell viability, IGR37 XP, 10μΜ ([5]; 10μΜ, 72 h): 85.4% | cell viability, IGR37 XP, 1μΜ ([5]; 1μΜ, 72 h, in %): 98.9 | cell viability, A375 GP, 1μΜ ([6]; 1μΜ, 72 h, in %): 95.9 | cell viability, A375 GP, 10μΜ ([6]; 10μΜ, 72 h, in %): 86.4 | cell viability, A375 Parental, 1μΜ (A375 cells (parental); 1μΜ, 72 h, in %): 99.8 | cell viability, A375 Parental, 10μΜ (A375 cells (parental); 10μΜ, 72 h, in %): 78.1

Cc1cccc(-c2[nH]c(C(C)(C)C)nc2-c2ccc3nccnc3c2)n1 [SB 525334]
cell viability (kinase inhibitor library screening) ([1]; 1μΜ, in %): 109.3 | cell viability (kinase inhibitor library screening) ([1]; 10μΜ, in %): 103.4 | cell viability (kinase inhibitor library screening) (IGR37 cells (parental); 1μΜ, in %): 104.1 | cell viability (kinase inhibitor library screening) (IGR37 cells (parental); 10μΜ, in %): 104.6 | cell viability (kinase inhibitor library screening) (501Mel cells (parental); 1μΜ, in %): 98.2 | cell viability (kinase inhibitor library screening) (501Mel cells (parental); 10μΜ, in %): 90.3 | cell viability (kinase inhibitor library screening) ([2]; 1μΜ, in %): 110.1 | cell viability (kinase inhibitor library screening) ([2]; 10μΜ, in %): 89.8 | cell viability (kinase inhibitor library screening) ([3]; 1μΜ, in %): 100.5 | cell viability (kinase inhibitor library screening) ([3]; 10μΜ, in %): 78.5 | cell viability (kinase inhibitor library screening) ([4]; 1μΜ, in %): 99.0 | cell viability (kinase inhibitor library screening) ([4]; 10μΜ, in %): 73.8 | cell viability (kinase inhibitor library screening) ([5]; 1μΜ, in %): 91.6 | cell viability (kinase inhibitor library screening) ([5]; 10μΜ, in %): 60.0 | cell viability (kinase inhibitor library screening) ([6]; 1μΜ, in %): 114.6 | cell viability (kinase inhibitor library screening) ([6]; 10μΜ, in %): 93.3 | cell viability (kinase inhibitor library screening) (A375 cells (parental); 1μΜ, in %): 112.1 | cell viability (kinase inhibitor library screening) (A375 cells (parental); 10μΜ, in %): 110.1

CC(C)(C)c1cnc(CSc2cnc(NC(=O)C3CCNCC3)s2)o1 [SNS-032 (BMS-387032)]
cell viability (kinase inhibitor library screening) ([1]; 1μΜ, 72 h): 14.3% | cell viability (kinase inhibitor library screening) ([1]; 10μΜ, 72 h): 6.4% | cell viability (kinase inhibitor library screening) (IGR37 cells (parental); 1μΜ, 72 h): 3.3% | cell viability (kinase inhibitor library screening) (IGR37 cells (parental); 10μΜ, 72 h): 0.754% | cell viability (kinase inhibitor library screening) (501Mel cells (parental); 1μΜ, 72 h): 23.5% | cell viability (kinase inhibitor library screening) (501Mel cells (parental); 10μΜ, 72 h): 0.4% | cell viability (kinase inhibitor library screening) ([2]; 1μΜ, 72 h): 31.8% | cell viability (kinase inhibitor library screening) ([2]; 10μΜ, 72 h): 0.161% | cell viability (kinase inhibitor library screening) ([3]; 1μΜ, 72 h): 30.8% | cell viability (kinase inhibitor library screening) ([3]; 10μΜ, 72 h): -0.0482% | cell viability (kinase inhibitor library screening) ([4]; 1μΜ, 72 h): 8.6% | cell viability (kinase inhibitor library screening) ([4]; 10μΜ, 72 h): 2.7% | cell viability (kinase inhibitor library screening) ([5]; 1μΜ, 72 h): 2.8% | cell viability (kinase inhibitor library screening) ([5]; 10μΜ, 72 h): 2.1% | cell viability (kinase inhibitor library screening) ([6]; 1μΜ, 72 h): 8.3% | cell viability (kinase inhibitor library screening) ([6]; 10μΜ, 72 h): 3.6% | cell viability (kinase inhibitor library screening) (A375 cells (parental); 10μΜ, 72 h): 7.7% | cell viability (kinase inhibitor library screening) (A375 cells (parental); 1μΜ, 72 h): 13.7%

O=C(Nc1cccc(Cl)c1)Nc1ncc(CCNc2ncnc3ccsc23)s1 [SNS-314]
cell viability (kinase inhibitor library screening) ([1]; 1μΜ, 72 h): 56.7% | cell viability (kinase inhibitor library screening) ([1]; 10μΜ, 72 h): 55.3% | cell viability (kinase inhibitor library screening) (IGR37 cells (parental); 1μΜ, 72 h): 81.9% | cell viability (kinase inhibitor library screening) (IGR37 cells (parental); 10μΜ, 72 h): 57.7% | cell viability (kinase inhibitor library screening) (501Mel cells (parental); 1μΜ, 72 h): 79.7% | cell viability (kinase inhibitor library screening) (501Mel cells (parental); 10μΜ, 72 h): 75.7% | cell viability (kinase inhibitor library screening) ([2]; 1μΜ, 72 h): 79.1% | cell viability (kinase inhibitor library screening) ([2]; 10μΜ, 72 h): 58.4% | cell viability (kinase inhibitor library screening) ([3]; 1μΜ, 72 h): 72.3% | cell viability (kinase inhibitor library screening) ([3]; 10μΜ, 72 h): 46.6% | cell viability (kinase inhibitor library screening) ([4]; 1μΜ, 72 h): 93.6% | cell viability (kinase inhibitor library screening) ([4]; 10μΜ, 72 h): 58.8% | cell viability (kinase inhibitor library screening) ([5]; 1μΜ, 72 h): 88.3% | cell viability (kinase inhibitor library screening) ([5]; 10μΜ, 72 h): 20.8% | cell viability (kinase inhibitor library screening) ([6]; 1μΜ, 72 h): 47.1% | cell viability (kinase inhibitor library screening) ([6]; 10μΜ, 72 h): 46.9% | cell viability (kinase inhibitor library screening) (A375 cells (parental); 10μΜ, 72 h): 46.0% | cell viability (kinase inhibitor library screening) (A375 cells (parental); 1μΜ, 72 h): 47.7%
